This is an account of results in patent US11053196B2, “Substituted indoline derivatives as dengue viral replication inhibitors” (JANSSEN PHARMACEUTICALS, INC., priority 2017, dated 2021).

A short description of one data set: in vitro. Particulars: African green monkey.
Another data set concerns DENV-2 16681 strain. Put plainly: DENV-2 antiviral assay (eGFP-labeled virus in Vero cells). Format: cell-based, Dengue virus. The settings on record: DENV-2 16681 eGFP, MOI 0.5, 3 days. As to the method: The antiviral activity of all the compounds of the invention was tested against the DENV-2 16681 strain which was labeled with enhanced green fluorescent protein (eGPF). The culture medium consists of minimal essential medium supplemented with 2% of heat-inactivated fetal calf serum, 0.04% gentamycin (50 mg/mL) and 2 mM of L-glutamine. Vero cells, obtained from ECACC, were suspended in culture medium and 25 μL was added to 384-well plates (2500 cells/well), which already contain the antiviral compounds. Typically, these plates contain a 5-fold serial dilution of 9 dilution steps of the test compound at 200 times the final concentration in 100% DMSO (200 nL). […] Finally, each plate contains wells which are assigned as virus controls (containing cells and virus in the absence of compound), cell controls (containing cells in the absence of virus and compound) and medium controls (containing medium in the absence of cells, virus and compounds). To the wells assigned as medium control, 25 μL of culture medium was added instead of Vero cells. Once the cells are added to the plates, the plates were incubated for 30 minutes at room temperature to allow the cells to distribute evenly within the wells. Next, the plates were incubated in a fully humidified incubator (37° C., 5% CO2) until the next day. Then, DENV-2 strain 16681, labeled with eGFP, was added at a multiplicity of infection (MOI) of 0.5.
Therefore, 15 μL of virus suspension was added to all the wells containing test compound and to the wells assigned as virus control. In parallel, 15 μL of culture medium was added to the medium and cell controls. Next, the plates were incubated for 3 days in a fully humidified incubator (37° C., 5% CO2). At the day of the read out, the eGFP fluorescence was measured using an automated fluorescence microscope at 488 nm (blue laser). Using an in-house LIMS system, inhibition dose response curves for each compound were calculated and the half maximal effective concentration (EC50) was determined. Therefore, the percent inhibition (I) for every test concentration is calculated using the following formula: I=100*(ST−SCC)/(SVC−SCC); ST, SCC and SVC are the amount of eGFP signal in the test compound, cell control and virus control wells, respectively. The EC50 represents the concentration of a compound at which the virus replication is inhibited with 50%, as measured by a 50% reduction of the eGFP fluorescent intensity compared to the virus control. The EC50 is calculated using linear interpolation (Table 1).

Setting [1] is: Dengue virus, DENV2, Vero, 72 h.

As a reminder, the EC50 is the concentration giving half of the maximal effect. In “in vitro”, `COc1cc(NC(C(=O)N2CCc3ccc(S(F)(F)(F)(F)F)cc32)c2ccc(Cl)cc2)cc(OCCCC(=O)O)c1` (racemic) [Compound 1, 4-(3-((1-(4-chlorophenyl)-2-oxo-2-(6-(pentafluoro-λ^6-sulfanyl)indolin-1-yl)ethyl)amino)-5-methoxyphenoxy)butanoic acid] returned a CC50 of 13 µM. This compound also came in with an EC50 with DENV-2 16681 strain (setting [1]) of 0.00064 µM.
In turn, `COc1cc(NC(C(=O)N2CCc3ccc(OC(F)(F)F)cc32)c2ccc(F)cc2OC)cc(OCCCC(=O)O)c1` (racemic) [Compound 6, 4-(3-((1-(4-fluoro-2-methoxyphenyl)-2-oxo-2-(6-(trifluoromethoxy)indolin-1-yl)ethyl)amino)-5-methoxyphenoxy)butanoic acid] yielded a CC50 in the data set “in vitro” of 12 µM. The EC50 in the data set with DENV-2 16681 strain (setting [1]) worked out at 0.00063 µM.
`COc1cc(NC(C(=O)N2CCc3ccc(OC(F)(F)F)cc32)c2ccc(Cl)cc2OCCO)cc(OCCCC(=O)O)c1` (racemic) [Compound 8, 4-(3-((1-(4-chloro-2-(2-hydroxyethoxy)phenyl)-2-oxo-2-(6-(trifluoromethoxy)indolin-1-yl)ethyl)amino)-5-methoxyphenoxy)butanoic acid] registered a CC50 in “in vitro” of 13 µM. The compound further yielded an EC50 in the data set with DENV-2 16681 strain (setting [1]) of 0.00015 µM.
The compound `COc1cc(NC(C(=O)N2CCc3c(C)cc(C(F)(F)F)cc32)c2ccc(Cl)cc2)cc(OCCCC(=O)O)c1` (single isomer, unassigned) [Compound 2A, 4-(3-((1-(4-chlorophenyl)-2-(4-methyl-6-(trifluoromethyl)indolin-1-yl)-2-oxoethyl)amino)-5-methoxyphenoxy)butanoic acid] gave a CC50 in the data set “in vitro” of 12 µM. In addition, the EC50 with DENV-2 16681 strain turned out to be 0.015 µM.
With `COc1cc(NC(C(=O)N2CCc3c(C)cc(OC(F)(F)F)cc32)c2ccc(Cl)cc2)cc(OCCCC(=O)O)c1` (racemic) [Compound 4, 4-(3-((1-(4-chlorophenyl)-2-(4-methyl-6-(trifluoromethoxy)indolin-1-yl)-2-oxoethyl)amino)-5-methoxyphenoxy)butanoic acid], the CC50 in “in vitro” was found to be 12 µM. Also, the EC50 in the data set with DENV-2 16681 strain (setting [1]) stood at 0.00011 µM.
With `COc1cc(NC(C(=O)N2CCc3cc(F)c(OC(F)(F)F)cc32)c2ccc(Cl)cc2)cc(OCCCC(=O)O)c1` (racemic) [Compound 5, 4-(3-((1-(4-chlorophenyl)-2-(5-fluoro-6-(trifluoromethoxy)indolin-1-yl)-2-oxoethyl)amino)-5-methoxyphenoxy)butanoic acid], the CC50 in the data set “in vitro” was found to be 10 µM. Besides, the EC50 in the data set on DENV-2 16681 strain (setting [1]) is 0.00011 µM.
Take `COc1cc(NC(C(=O)N2CCc3ccc(OC(F)(F)F)cc32)c2ccc(F)cc2OC)cc(OCCCC(=O)O)c1` (single isomer, unassigned) [Compound 6A, 4-(3-((1-(4-fluoro-2-methoxyphenyl)-2-oxo-2-(6-(trifluoromethoxy)indolin-1-yl)ethyl)amino)-5-methoxyphenoxy)butanoic acid]: the CC50 in the data set “in vitro” amounted to 11 µM. Also, a half-maximal effect with DENV-2 16681 strain (EC50) was put at 0.25 µM.
With `COc1cc(NC(C(=O)N2CCc3sc(C(F)(F)F)cc32)c2ccc(Cl)cc2)cc(OCCCC(=O)O)c1` (racemic) [Compound 10, 4-(3-((1-(4-chlorophenyl)-2-oxo-2-(2-(trifluoromethyl)-5,6-dihydro-4H-thieno[3,2-b]pyrrol-4-yl)ethyl)amino)-5-methoxyphenoxy)butanoic acid], the CC50 in “in vitro” was found to be 19 µM. Further, the EC50 with DENV-2 16681 strain (setting [1]) was 0.00052 µM.
Regarding `COc1cc(NC(C(=O)N2CCc3c(C)cc(C(F)(F)F)cc32)c2ccc(Cl)cc2)cc(OCCCC(=O)O)c1` (racemic) [Compound 2, 4-(3-((1-(4-chlorophenyl)-2-(4-methyl-6-(trifluoromethyl)indolin-1-yl)-2-oxoethyl)amino)-5-methoxyphenoxy)butanoic acid], in “in vitro”, the CC50 turned out to be 12 µM. Moreover, the EC50 in the data set on DENV-2 16681 strain (setting [1]) worked out at 0.00038 µM.
For `COc1cc(NC(C(=O)N2CCc3nc(OC)c(C(F)(F)F)cc32)c2ccc(Cl)cc2)cc(OCCCC(=O)O)c1` (racemic) [Compound 9, 4-(3-((1-(4-chlorophenyl)-2-(5-methoxy-6-(trifluoromethyl)-2,3-dihydro-1H-pyrrolo[3,2-b]pyridin-1-yl)-2-oxoethyl)amino)-5-methoxyphenoxy)butanoic acid], in “in vitro”, the CC50 was 12 µM. The same compound gave an EC50 in the data set with DENV-2 16681 strain (setting [1]) of 0.00099 µM.
On to `COc1cc(NC(C(=O)N2CCc3ccc(S(F)(F)(F)(F)F)cc32)c2ccc(Cl)cc2)cc(OCCCC(=O)O)c1` (single isomer, unassigned) [Compound 1A, 4-(3-((1-(4-chlorophenyl)-2-oxo-2-(6-(pentafluoro-λ^6-sulfanyl)indolin-1-yl)ethyl)amino)-5-methoxyphenoxy)butanoic acid], for which the CC50 in “in vitro” came to 12 µM. In addition, the EC50 in the data set on DENV-2 16681 strain amounted to 0.0013 µM.
In the same order, the values of `COc1cc(NC(C(=O)N2CCc3cc(F)c(OC(F)(F)F)cc32)c2ccc(Cl)cc2)cc(OCCCC(=O)O)c1` (single isomer, unassigned) [Compound 5A, 4-(3-((1-(4-chlorophenyl)-2-(5-fluoro-6-(trifluoromethoxy)indolin-1-yl)-2-oxoethyl)amino)-5-methoxyphenoxy)butanoic acid] are 10 µM and 0.0023 µM.
In the case of `COc1cc(NC(C(=O)N2CCc3ccc(SC(F)(F)F)cc32)c2ccc(Cl)cc2)cc(OCCCC(=O)O)c1` (racemic) [Compound 11, 4-(3-((1-(4-chlorophenyl)-2-oxo-2-(6-((trifluoromethyl)thio)indolin-1-yl)ethyl)amino)-5-methoxyphenoxy)butanoic acid], the CC50 in the data set “in vitro” was 13 µM. The compound further had an EC50 in the data set with DENV-2 16681 strain (setting [1]) of 0.00028 µM.
As to `COc1cc(NC(C(=O)N2CCc3cc(F)c(C(F)(F)F)cc32)c2ccc(Cl)cc2)cc(OCCCC(=O)O)c1` (racemic) [Compound 3, 4-(3-((1-(4-chlorophenyl)-2-(5-fluoro-6-(trifluoromethyl)indolin-1-yl)-2-oxoethyl)amino)-5-methoxyphenoxy)butanoic acid], the CC50 in “in vitro” turned out to be 13 µM. Also, in the data set on DENV-2 16681 strain (setting [1]), the EC50 turned out to be 0.00056 µM.
